The record followed here is US20230135552A1, “Compounds Useful In Inhibiting Ketohexokinase And Methods Of Making And Using The Same” (Inorbit Therapeutics AB, priority 2020, published 2023).

SMILES strings stand for the structures.

Assay [1] addresses T1, Human Ketohexokinase (KHK-A) (Homo sapiens, UniProt P50053).
T1 construct: Recombinant Human Ketohexokinase, Met1Val298, with C terminal 6His tag; 6His (C); purchased R&D Systems 8177-HK
T1 sequence (P50053 1-298 isoform P50053-2): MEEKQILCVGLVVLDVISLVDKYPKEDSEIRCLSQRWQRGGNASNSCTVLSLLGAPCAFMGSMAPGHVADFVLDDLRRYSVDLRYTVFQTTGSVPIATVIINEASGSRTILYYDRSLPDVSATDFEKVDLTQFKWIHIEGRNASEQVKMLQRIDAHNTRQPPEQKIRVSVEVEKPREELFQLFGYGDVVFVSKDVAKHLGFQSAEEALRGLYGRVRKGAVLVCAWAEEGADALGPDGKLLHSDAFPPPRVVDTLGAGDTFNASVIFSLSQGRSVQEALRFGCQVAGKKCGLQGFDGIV
Kind of assay: Transcreener Kinase ADP2 FP assay, inhibition of human KHK-A. The class given is biochemical. As to conditions: recombinant human KHK-A 17.5 nM, 0.3 mM ATP, 7 mM fructose, 30 min pre-incubation, 60 min at 30° C. The method, then: The following materials and methods were used, • Enzyme description and source: Recombinant Human Ketohexokinase, Met1Val298, with C terminal 6His tag (R&D Systems, 8177-HK). • Reagents: 200 μM ATP and 100 mM D-(−)-Fructose (Sigma F0127) as substrates. • Enzyme reaction buffer: 25 mM HEPES, 300 mM KCl, 10 mM MgCl2, 10 mM CaCl2, pH 7.0. • Control compound: KHK Inhibitor (Millipore-Sigma 420640) See Maryanoff, B. E., et al. 2011. ACS Med. Chem. Lett. 2, 538. • Assay: Transcreener Kinase ADP2 FP assay as described: https://www.bellbrooklabs.com/products/transcreener-hts-assays/kinase-assays/ • Assay parameters: 12-point dose response (n=2), 3-fold serial dilution, starting at 100 μM
KHK-A was added to the tested compounds (from 10 mM stock solution in 25 mM Tris pH 7.4), to a total volume 5 μl, and pre-incubated for 30 minutes at rt to ensure E*I complex formation. The reaction was then initiated by addition of an equal volume (5 μl) containing ATP and Fructose to give a resulting mix of 17.5 nM KHK-A, 0.3 mM ATP, 7 mM Fructose, 25 mM Tris (pH 7.4), 10 mM MgCl2, 10 mM CaCl2 and 50 mM KCl. Following 60 min at 30° C., reactions were quenched with 10 μl of stop/detect mix (40 mM HEPES (pH 7.5), 80 mM EDTA, 0,04% Brij-35, 8 nM ADP tracer and optimal concentration of ADP2 antibody), The plates were read on a PHERAstar PLUS after 1-hour room temperature equilibration. […]

The next assay has as its target T2, KHK (Rattus norvegicus, UniProt Q02974).
T2 construct: from tissue; host or cells: whole animal, male Sprague Dawley rats (in vivo)
T2 sequence (Q02974 1-298): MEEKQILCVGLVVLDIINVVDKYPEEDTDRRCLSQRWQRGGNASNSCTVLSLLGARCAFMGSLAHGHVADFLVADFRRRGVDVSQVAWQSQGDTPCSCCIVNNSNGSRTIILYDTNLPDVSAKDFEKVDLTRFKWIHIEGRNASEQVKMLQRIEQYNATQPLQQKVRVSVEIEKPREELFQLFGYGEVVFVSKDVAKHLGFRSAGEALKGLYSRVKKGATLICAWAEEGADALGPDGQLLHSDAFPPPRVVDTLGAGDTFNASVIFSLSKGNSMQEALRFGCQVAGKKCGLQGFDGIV
Nature of the assay: Oral Fructose Tolerance Test (OFTT) in male Sprague Dawley rats. It is filed as in vivo. To be noted: 100 mg/kg oral; fructose bolus 2 g/kg 1 hour after compound; blood at 0.5, 1, 2 and 3 hours post challenge; FIG. 1. On the procedure: FIG. 1: Graph showing the change in fructose levels from baseline in the control and Example 2 and 6 treated animals in the OFTT study.
The animals were fasted overnight, basal blood samples collected and a 100 mg/kg dose was orally administered of compounds example 2 or example 6. A fructose bolus (2 g/kg) was then given 1 hour after test compound administration and blood samples collected at 0.5, 1, 2 and 3 hours post fructose challenge. All the blood samples were centrifuged immediately and the separated plasma samples were stored at appropriate temperature for the fructose estimation. Plasma fructose concentration was measured by commercially available EnzyChrome fructose assay kit.

In general, IC50 refers to the concentration that gives 50% inhibition. `C[C@H]1CCN1c1nc(N2C[C@@H]3[C@H](C2)[C@H]3CS(=O)O)cc(C(F)(F)F)n1` [Example 2, sodium((1R,5S,6S)-3-(2-((S)-2-methylazetidin-1-yl)-6-(trifluoromethyl)pyrimidin-4-yl)-3-azabicyclo[3.1.0]hexan-6-yl)methanesulfinate]: the IC50 in assay [1] was 740 nM. Besides, the “change in fructose levels from baseline (plasma fructose) versus the control group” value at KHK was “increase of fructose plasma levels”.
The corresponding values for `Cc1c(N2C[C@@H]3[C@H](C2)[C@H]3CS(=O)O)nc(N2CC[C@@H]2C)nc1C(F)(F)F` [Example 6, sodium((1R,5S,6S)-3-(5-methyl-2-((S)-2-methylazetidin-1-yl)-6-(trifluoromethyl)pyrimidin-4-yl)-3-azabicyclo[3.1.0]hexan-6-yl)methanesulfinate] are 78 nM and “increase of fructose plasma levels”.
